Measurements reported in US20230099344A1, “COMPOUNDS AND METHODS FOR THE TARGETED DEGRADATION OF IRAK-4” (Arvinas Operations, Inc., priority 2021, published 2023).
Where two headings read alike, the source gives them in different places.

Assays:
Format in all cases: cell-based
IL6 = test: IL-1β stimulated IL6 inhibition assay in PBMC; details: human PBMCs, IL-1β stimulation, compound overnight, IL6 by MSD after 24 hrs; for IC50: read-out: IL1β stim IL6 inhibition IC50; for Emax: read-out: IL1β stim IL6 inhibition Ymax
Method: (§1) IL-1β, LPS, or R848 Stimulated IL6 Inhibition and IL-1β Stimulated IL8 Inhibition Assay
(§2) Human PBMC cells were seeded at 2.0×10^6 cells/mL, treated with compound overnight, and dosed with the EC50 concentration of each stimulant (either IL-1B. LPS, or R848) was determined for each donor. After 24 hrs, media was collected and analyzed by MSD for IL6 and/or IL8 levels.

IL8 = test: IL-1β stimulated IL8 inhibition assay in PBMC; details: human PBMCs, IL-1β stimulation, compound overnight, IL8 by MSD after 24 hrs; for IC50: read-out: IL1β stim IL8 inhibition IC50; for Emax: read-out: IL1β stim IL8 inhibition Ymax
Method: as §1, §2

IRAK-4 [1] = biological target: T1, IRAK-4 (Homo sapiens, UniProt Q9NWZ3); test: IRAK-4 ELISA, OCI-Ly10 degradation; parameters: endogenous in cells; details: treated overnight; for Dmax: OCI-Ly10, OCI-Ly10 cells
T1 sequence (Q9NWZ3 1-460): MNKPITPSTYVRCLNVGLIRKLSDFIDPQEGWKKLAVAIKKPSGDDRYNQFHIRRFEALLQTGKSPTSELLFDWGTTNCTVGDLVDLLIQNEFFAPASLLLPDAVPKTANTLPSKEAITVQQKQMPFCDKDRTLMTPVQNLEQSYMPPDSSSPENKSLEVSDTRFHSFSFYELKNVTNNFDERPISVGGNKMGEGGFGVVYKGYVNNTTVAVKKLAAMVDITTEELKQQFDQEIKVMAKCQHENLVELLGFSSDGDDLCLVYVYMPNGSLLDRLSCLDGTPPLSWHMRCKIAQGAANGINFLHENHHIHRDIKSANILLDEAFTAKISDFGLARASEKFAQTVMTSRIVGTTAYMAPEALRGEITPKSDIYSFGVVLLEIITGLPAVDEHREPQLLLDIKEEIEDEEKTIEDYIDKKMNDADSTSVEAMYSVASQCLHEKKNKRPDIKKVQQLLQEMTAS
In short: (§3)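 ELISA quantification of cellular IRAK-4 after compound treatment overnight; PBMC were plated at 2×10^6/ml, OCI-Ly10 at 1×10^6/ml.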

IRAK-4 [2] = biological target: T1, IRAK-4; test: IRAK-4 ELISA, PBMC degradation; parameters: endogenous in cells; host or cells: PBMC; details: treated overnight
In short: as §3

| SMILES | IC50 (IL6; Homo sapiens, PBMC, 24 h) | Emax (IL6; PBMC) | IC50 (IL8) | Emax (IL8) | Dmax (IRAK-4 [1]) | DC50 (IRAK-4 [1]; OCI-Ly10 cells) | DC50 (IRAK-4 [2]) | Dmax (IRAK-4 [2]) | PBMC DC90 (IRAK-4 [2]) | IL1β stim IL6 inhibition Ymax (IL6) | IC50 (IL6) | OCI-LY10 Dmax (IRAK-4 [1]; OCI-Ly10 cells) | PBMC Dmax (IRAK-4 [2]) |
| --- | --- | --- | --- | --- | --- | --- | --- | --- | --- | --- | --- | --- | --- |
| COc1cc(N2CCC(CN3CCC(N4Cc5cc(NC(=O)c6cnn7cccnc67)c(OC(C)C)cc5C4=O)CC3)CC2)cc2c1C(=O)N(C1CCC(=O)NC1=O)C2=O (stereo not shown) [Example 12] | 0.01 to 0.05 µM | 80 to 90% | 0.01 to 0.05 µM | < 70% | ≥ 90% | < 0.01 µM | < 0.001 µM | ≥ 90% | A (A represents a DC90 value <10.0 nM) | – | – | – | – |
| O=C1CCC(N2Cc3cc(N4CC(CN5CCC(N6Cc7cc(NC(=O)c8cnn9cccnc89)c(OCC8CC8)cc7C6=O)CC5)C4)ccc3C2=O)C(=O)N1 (stereo not shown) [Example 29] | 0.01 to 0.05 µM | < 70% | 0.05 to 0.1 µM | 70 to 80% | 70 to 80% | < 0.01 µM | 0.001 to 0.005 µM | 80 to 90% | A (A represents a DC90 value <10.0 nM) | – | – | – | – |
| O=C1CCC(N2C(=O)c3ccc(N4CCC(CN5CCC(N6Cc7cc(NC(=O)c8cnn9cccnc89)c(OCC8CC8)cc7C6=O)CC5)CC4)cc3C2=O)C(=O)N1 (stereo not shown) [Example 30] | 0.01 to 0.05 µM | ≥ 90% | ≥ 0.1 µM | – | ≥ 90% | < 0.01 µM | < 0.001 µM | 80 to 90% | A (A represents a DC90 value <10.0 nM) | – | – | – | – |
| O=C1CCC(N2C(=O)c3ccc(N4CCC(CN5CCC(N6Cc7cc(NC(=O)c8cnn9cccnc89)c(N8CCOCC8)cc7C6=O)CC5)CC4)cc3C2=O)C(=O)N1 (stereo not shown) [Example 32] | – | – | ≥ 0.1 µM | ≥ 90% | – | < 0.01 µM | 0.001 to 0.005 µM | – | C (C represents a DC90 value ≥25.0 nM and <50 nM) | A (A represents a Ymax value ≥90) | 0.01 to 0.05 µM | D (D represents a Dmax value <70) | C (C represents a Dmax value ≥70 and <80) |
| O=C1CCC(N2Cc3cc(CCN4CCC(N5Cc6cc(NC(=O)c7cnn8cccnc78)c(N7CCOCC7)cc6C5=O)CC4)ccc3C2=O)C(=O)N1 (stereo not shown) [Example 36] | 0.01 to 0.05 µM | 70 to 80% | ≥ 0.1 µM | – | < 70% | < 0.01 µM | 0.001 to 0.005 µM | < 70% | B (B represents a DC90 value ≥10.0 nM and <25.0 nM) | – | – | – | – |
| O=C1CCC(N2C(=O)c3ccc(N4CCC(CN5CCC(N6Cc7cc(NC(=O)c8cnn9cccnc89)c(N8CCC(N9CCC9)CC8)cc7C6=O)CC5)CC4)cc3C2=O)C(=O)N1 (stereo not shown) [Example 38] | < 0.01 µM | ≥ 90% | ≥ 0.1 µM | ≥ 90% | ≥ 90% | < 0.01 µM | 0.001 to 0.005 µM | ≥ 90% | A (A represents a DC90 value <10.0 nM) | – | – | – | – |
| CC(C)Oc1cc2c(cc1NC(=O)c1cnn3cccnc13)CN(C1CCN(C3CN(c4ccc5c(c4)C(=O)N(C4CCC(=O)NC4=O)C5=O)C3)CC1)C2=O (stereo not shown) [Example 59] | 0.01 to 0.05 µM | ≥ 90% | 0.05 to 0.1 µM | 70 to 80% | ≥ 90% | < 0.01 µM | 0.001 to 0.005 µM | ≥ 90% | B (B represents a DC90 value ≥10.0 nM and <25.0 nM) | – | – | – | – |
| CC(C)Oc1cc2c(cc1NC(=O)c1cnn3cccnc13)CN(C1CCN(C3CCN(c4ccc5c(c4)C(=O)N(C4CCC(=O)NC4=O)C5=O)CC3)CC1)C2=O (stereo not shown) [Example 64] | 0.01 to 0.05 µM | 80 to 90% | 0.05 to 0.1 µM | < 70% | ≥ 90% | < 0.01 µM | < 0.001 µM | ≥ 90% | A (A represents a DC90 value <10.0 nM) | – | – | – | – |
| CC(C)Oc1cc2c(cc1NC(=O)c1cnn3cccnc13)CN([C@H]1CC[C@@H](N3CC4(CN(c5ccc6c(c5)C(=O)N(C5CCC(=O)NC5=O)C6=O)C4)C3)CC1)C2=O (stereo partly shown) [Example 69] | 0.01 to 0.05 µM | ≥ 90% | 0.01 to 0.05 µM | 80 to 90% | ≥ 90% | < 0.01 µM | 0.001 to 0.005 µM | ≥ 90% | A (A represents a DC90 value <10.0 nM) | – | – | – | – |
| O=C1CCC(N2C(=O)c3ccc(N4CC(CN5CCC(N6Cc7cc(NC(=O)c8cnn9cccnc89)c(OCC8CC8)cc7C6=O)CC5)C4)cc3C2=O)C(=O)N1 (stereo not shown) [Example 86] | < 0.01 µM | ≥ 90% | 0.01 to 0.05 µM | 70 to 80% | ≥ 90% | < 0.01 µM | 0.001 to 0.005 µM | ≥ 90% | B (B represents a DC90 value ≥10.0 nM and <25.0 nM) | – | – | – | – |
| O=C1CCC(N2C(=O)c3ccc(N4CC(CN5CCC(N6Cc7cc(NC(=O)c8cnn9cccnc89)c(N8CCOCC8)cc7C6=O)CC5)C4)cc3C2=O)C(=O)N1 (stereo not shown) [Example 96] | 0.05 to 0.1 µM | ≥ 90% | ≥ 0.1 µM | < 70% | ≥ 90% | 0.01 to 0.05 µM | 0.001 to 0.005 µM | ≥ 90% | B (B represents a DC90 value ≥10.0 nM and <25.0 nM) | – | – | – | – |
| O=C1CCC(N2C(=O)c3ccc(N4CC(N5CCC(N6Cc7cc(NC(=O)c8cnn9cccnc89)c(N8CCC(N9CCC9)CC8)cc7C6=O)CC5)C4)cc3C2=O)C(=O)N1 (stereo not shown) [Example 99] | 0.01 to 0.05 µM | ≥ 90% | 0.05 to 0.1 µM | 80 to 90% | ≥ 90% | < 0.01 µM | 0.005 to 0.01 µM | 80 to 90% | D (D represents a DC90 value ≥50 nM) | – | – | – | – |
| O=C1CCC(N2Cc3cc(OCCOCCN4CCC(n5cc6cc(NC(=O)c7cnn8cccnc78)c(OCC7CC7)cc6n5)CC4)ccc3C2=O)C(=O)N1 (stereo not shown) [Example 119] | < 0.01 µM | ≥ 90% | 0.01 to 0.05 µM | 80 to 90% | 80 to 90% | < 0.01 µM | < 0.001 µM | ≥ 90% | A (A represents a DC90 value <10.0 nM) | – | – | – | – |
